pIC50: −log10 of the molar value.
Biological target: T1, human VR1 (Homo sapiens, UniProt Q8NER1)
T1 construct: expressed in transfected cells
Assay: Capsaicin-induced Ca2+ influx in the human VR1-transfected CHO cell line (Assay 1)
Format: cell-based
Conditions: capsaicin-induced Ca2+ flux; compounds or the salt thereof (e.g., potassium salt); purity about 40 to 90%
Description: [Measurement of Capsaicin-induced Ca^2+ Influx in the Human VR1-transfected CHO Cell Line] (Assay 1)
(1) Establishment of the human VR1-CHOluc9aeq cell line
Human vanilloid receptor (hVR1) cDNA was cloned from libraries of axotomized dorsal root ganglia (WO2000/29577). The cloned hVR1 cDNA was constructed with pcDNA3 vector and transfected into a CHOluc9aeq cell line. The cell line contains aequorin and CRE-luciferase reporter genes as read-out signals. The transfectants were cloned by limiting dilution in selection medium (DMEM/F12 medium (Gibco BRL) supplemented with 10% FCS, 1.4 mM Sodium pyruvate, 20 mM HEPES, 0.15% Sodium bicarbonate, 100 U/ml penicillin, 100 μ/ml streptomycin, 2 mM glutamine, non-essential amino acids and 2 mg/ml G418). Ca^2+ influx was examined in the capsaicin-stimulated clones. […] The human VR1-CHOluc9aeq cells were maintained in the selection medium and passaged every 3-4 days at 1-2.5×10^5 cells/flask ([…])
(2) Measurement of Ca^2+ influx using FDSS-3000
Human VR1-CHOluc9aeq cells were suspended in a culture medium which is the same as the selection medium except for G418 and seeded at a density of 1,000 cells per well into 384-well plates (black walled clear-base/Nalge Nunc International). Following the culture for 48 hrs the medium was changed to 2 μM Fluo-3 AM (Molecular Probes) and 0.02% Puronic F-127 in assay buffer (Hank's balanced salt solution (HBSS), 17 mM HEPES (pH7.4), 1 mM Probenecid, 0.1% BSA) and the cells were incubated for 60 min at 25° C. After washing twice with assay buffer the cells were incubated with a test compound or vehicle for 20 min at 25° C. Mobilization of cytoplasmic Ca^2+ was measured by FDSS-3000 (λex=488 nm, λem=540 nm/Hamamatsu Photonics) for 60 sec after the stimulation with 10 nM of capsaicin (Nacalai Tesque). Integral R of the fluorescence changes was calculated in the samples treated with a test compound and vehicle respectively. Inhibitory effect of the compound was calculated by a comparison of the integral R values.

T1 sequence (Q8NER1 whole entry): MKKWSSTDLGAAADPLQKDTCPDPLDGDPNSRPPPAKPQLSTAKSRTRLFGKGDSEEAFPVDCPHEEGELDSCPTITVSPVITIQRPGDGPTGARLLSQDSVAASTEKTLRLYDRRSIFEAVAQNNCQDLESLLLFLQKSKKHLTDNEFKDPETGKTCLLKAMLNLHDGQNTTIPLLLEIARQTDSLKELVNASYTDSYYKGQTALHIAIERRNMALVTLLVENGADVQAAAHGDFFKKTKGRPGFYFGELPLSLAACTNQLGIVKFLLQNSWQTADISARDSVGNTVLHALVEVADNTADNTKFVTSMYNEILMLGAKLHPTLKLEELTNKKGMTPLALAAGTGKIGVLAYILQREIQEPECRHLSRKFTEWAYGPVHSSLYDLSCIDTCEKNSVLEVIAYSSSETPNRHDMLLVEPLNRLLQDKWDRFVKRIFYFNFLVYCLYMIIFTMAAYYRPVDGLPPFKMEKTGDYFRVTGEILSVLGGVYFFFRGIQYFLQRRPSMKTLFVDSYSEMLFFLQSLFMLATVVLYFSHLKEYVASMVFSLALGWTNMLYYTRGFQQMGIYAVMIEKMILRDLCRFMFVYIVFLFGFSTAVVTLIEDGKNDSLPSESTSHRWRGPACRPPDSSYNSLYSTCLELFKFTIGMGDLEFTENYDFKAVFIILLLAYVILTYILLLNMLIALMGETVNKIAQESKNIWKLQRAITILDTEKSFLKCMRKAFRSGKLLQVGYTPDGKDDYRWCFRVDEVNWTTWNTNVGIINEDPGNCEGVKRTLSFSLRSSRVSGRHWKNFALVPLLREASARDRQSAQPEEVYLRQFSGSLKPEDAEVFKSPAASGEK

pIC50, ≥ 8.00:
O=C(Nc1ccc(Cl)c(C(F)(F)F)c1)Nc1c(Cl)cc(Br)c2ccc(O)cc12 [N-(4bromo-2-chloro-7-hydroxy-1-naphthyl)N′-[4-chloro-3-(trifluoromethyl)phenyl]urea]
O=C(Nc1ccc(F)c(C(F)(F)F)c1)Nc1c(Cl)cc(Cl)c2ccc(O)cc12 [N-(2,4-dichloro-7-hydroxy-1-naphthyl)-N′-[4-fluoro-3-(trifluoromethyl)phenyl]urea]
O=C(NCc1ccc(Br)cc1)Nc1c(Cl)ccc2ccc(O)cc12 [N-(4-bromobenzyl)-N′-(2-chloro-7-hydroxy-1-naphthyl)urea]
O=C(Nc1ccc(Oc2ccc(Cl)cc2)cc1)Nc1cccc2ccc(O)cc12 [N-[4-(4-chlorophenoxy)phenyl]-N′-(7-hydroxy-1-naphthyl)urea]
O=C(Nc1ccc(C(F)(F)F)cc1)Nc1cccc2ccc(O)cc12 [N-(7-hydroxy-1-naphthyl)-N′-[4-(trifluoromethyl)phenyl]urea]
O=C(Nc1cccc(Oc2ccccc2)c1)Nc1cccc2ccc(O)cc12 [N-(7-hydroxy-1-naphthyl)-N′-(3-phenoxyphenyl)urea]
Cc1cc(Cl)c(NC(=O)Nc2ccc(Cl)c(C(F)(F)F)c2)c2cc(O)ccc12 [N-(2-chloro-7-hydroxy-4-methyl-1-naphthyl)-N′-[4-chloro-3-(trifluoromethyl)phenyl]urea]
O=C(Nc1cccc(-c2ccccc2Cl)c1)Nc1c(Cl)cc(Cl)c2ccc(O)cc12 [N-(2′-chloro-1,1′-biphenyl-3-yl)-N′-(2,4-dichloro-7-hydroxy-1-naphthyl)urea]
O=C(Nc1cccc(C(F)(F)F)c1)Nc1c(Cl)cc(Cl)c2ccc(O)cc12 [N-(2,4-dichloro-7-hydroxy-1-naphthyl)-N′-[3-(trifluoromethyl)phenyl]urea]
O=C(Nc1ccc(Cl)c(C(F)(F)F)c1)Nc1c(Cl)ccc2ccc(O)cc12 [N-(2-chloro-7-hydroxy-1-naphthyl)-N′-[4-chloro-3-(trifluoromethyl)phenyl]urea]
O=C(Nc1ccc(Cl)c(C(F)(F)F)c1)Nc1c(Cl)cc(Cl)c2ccc(O)cc12 [N-[4-chloro-3-(trifluoromethyl)phenyl]-N′-(2,4-dichloro-7-hydroxy-1-naphthyl)urea]
O=C(Nc1cccc(Cl)c1)Nc1c(Br)cc(Br)c2ccc(O)cc12 [N-(3-chlorophenyl)-N′-(2,4-dibromo-7-hydroxy-1-naphthyl)urea]
O=C(Nc1ccc(Oc2ccccc2)cc1)Nc1cccc2ccc(O)cc12 [N-(7-hydroxy-1-naphthyl)-N′-(4-phenoxyphenyl)urea]
O=C(Nc1cccc(-c2ccccc2)c1)Nc1c(Cl)ccc2ccc(O)cc12 [N-(1,1′-biphenyl-3-yl)-N′-(2-chloro-7-hydroxy-1-naphthyl)urea]
Cc1ccc(NC(=O)Nc2ccc(Cl)c(C(F)(F)F)c2)c2cc(O)ccc12 [N-[4-chloro-3-(trifluoromethyl)phenyl]-N′-(7-hydroxy-4-methyl-1-naphthyl)urea]
O=C(Nc1ccc(Cl)c(C(F)(F)F)c1)Nc1c(Br)cc(Br)c2ccc(O)cc12 [N-[4-chloro-3-(trifluoromethyl)phenyl]-N′-(2,4-dibromo-7-hydroxy-1-naphthyl)urea]
O=C(Nc1ccc2ccccc2c1)Nc1c(Cl)cc(Cl)c2ccc(O)cc12 [N-(2,4-dichloro-7-hydroxy-1-naphthyl)-N′-(2-naphthyl)urea]
O=C(Nc1cccc(-c2ccccc2)c1)Nc1cccc2ccc(O)cc12 [N-(1,1′-biphenyl-3-yl)-N′-(7-hydroxy-1-naphthyl)urea]
CCOC(=O)c1cccc(NC(=O)Nc2c(Cl)cc(Cl)c3ccc(O)cc23)c1 [ethyl 3-({[(2,4-dichloro-7-hydroxy-1-naphthyl)amino]carbonyl}amino)benzoate]
